pEC50: −log10 of the molar value. *1 amine or outer side, *2 acyl side, *3 side chain or, on linkers, in order; H or OH if unused. Where a SMILES comes first, the peptide text is derived from it. Side-chain parts run from the residue outwards. [ ]: non-standard residue; d: D form. The star is where a group is joined. X1 = O=C(CCCCCCCCCCCCCCCc1nnn[nH]1)NS(=O)(=O)CCCC(=O)*; C20 diacid = O=C(O)CCCCCCCCCCCCCCCCCCC(=O)*; γGlu = O=C(O)[C@H](CCC(=O)[*:2])N[*:1]; βAsp = O=C(O)[C@H](CC(=O)[*:2])N[*:1]; 12Ado = NCCCCCCCCCCCC(=O)O; AEEA = NCCOCCOCC(=O)O; Aib = CC(C)(N)C(=O)O; Inp = O=C(O)C1CCNCC1
Key:
[1] = target: T1, human GLP-1 receptor (Homo sapiens, UniProt P43220); experiment: Stimulation of cAMP formation in a cell line expressing the cloned human GLP-1 receptor; type: biochemical; conditions: cAMP production, purified plasma membranes from BHK467-12A (tk-ts13), AlphaScreen cAMP Assay Kit; read-out: Potency [EC50/nM]
T1 construct: expressed in transfected cells; host or cells: BHK467-12A (tk-ts13) baby hamster kidney cells; purified plasma membranes
Protocol: A stable transfected cell line has been prepared at NN A/S, Denmark, and a high expressing clone was selected for screening. The cells were grown at 5% CO2 in DMEM, 5% FCS, 1% Pen/Strep (Penicillin/Streptomycin) and 0.5 mg/ml of the selection marker G418.
Cells at approximate 80% confluence were washed 2× with PBS (Phosphate Buffered Saline) and harvested with Versene (aqueous solution of the tetrasodium salt of ethylenediaminetetraacetic acid), centrifuged 5 min at 1000 rpm and the supernatant removed. The additional steps were all made on ice. […] Suspension in Buffer 2, homogenization and centrifugation was repeated once and the membranes were resuspended in Buffer 2 and ready for further analysis or stored at −80° C.
The functional receptor assay was carried out by measuring the peptide induced cAMP production by The AlphaScreen Technology. […] The capture of cAMP is achieved by using a specific antibody conjugated to acceptor beads. Formed cAMP was counted and measured at a AlphaFusion Microplate Analyzer. The EC50 values were calculated using the Graph-Pad Prisme software (version 5).

[2] = target: human serum albumin (HSA) (Homo sapiens, UniProt P02768); experiment: Albumin binding affinity, competition scintillation proximity assay (SPA)
human serum albumin (HSA), sequence (P02768 25-609): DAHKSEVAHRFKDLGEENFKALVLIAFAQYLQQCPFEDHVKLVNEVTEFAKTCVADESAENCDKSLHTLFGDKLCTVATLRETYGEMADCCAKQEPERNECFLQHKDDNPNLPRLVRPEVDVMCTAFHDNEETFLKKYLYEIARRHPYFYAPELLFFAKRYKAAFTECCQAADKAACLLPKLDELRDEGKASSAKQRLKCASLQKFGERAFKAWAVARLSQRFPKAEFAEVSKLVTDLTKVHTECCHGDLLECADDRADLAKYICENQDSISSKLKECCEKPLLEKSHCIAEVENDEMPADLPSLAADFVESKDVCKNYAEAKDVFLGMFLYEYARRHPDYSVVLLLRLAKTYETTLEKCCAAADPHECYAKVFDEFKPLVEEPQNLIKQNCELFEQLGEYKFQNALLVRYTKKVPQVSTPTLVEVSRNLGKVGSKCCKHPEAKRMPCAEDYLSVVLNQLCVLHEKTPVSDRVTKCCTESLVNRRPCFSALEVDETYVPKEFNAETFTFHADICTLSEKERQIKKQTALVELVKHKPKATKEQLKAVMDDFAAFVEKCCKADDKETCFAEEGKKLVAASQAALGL
Protocol: Streptavidin-SPA beads (GE Healthcare RPNQ0009) were incubated with biotinylated HSA for 5 hours. The beads were washed with buffer to remove unbound HSA. […] After 20 hours of gentle rocking at room temperature the plates were centrifuged and counted on a TopCounter.

T1 sequence (P43220 24-463): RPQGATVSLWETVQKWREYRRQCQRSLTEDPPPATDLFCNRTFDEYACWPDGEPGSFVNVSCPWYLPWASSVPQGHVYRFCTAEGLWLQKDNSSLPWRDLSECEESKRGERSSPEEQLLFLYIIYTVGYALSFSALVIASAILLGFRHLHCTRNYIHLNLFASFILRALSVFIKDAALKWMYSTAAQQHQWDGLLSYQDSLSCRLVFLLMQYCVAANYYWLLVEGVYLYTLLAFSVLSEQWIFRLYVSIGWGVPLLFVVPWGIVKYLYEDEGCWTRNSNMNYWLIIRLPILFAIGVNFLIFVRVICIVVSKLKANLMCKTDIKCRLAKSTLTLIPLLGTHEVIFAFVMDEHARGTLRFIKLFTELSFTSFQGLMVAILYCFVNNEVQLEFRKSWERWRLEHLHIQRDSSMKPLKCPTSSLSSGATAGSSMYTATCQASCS

EC50 [1] [nM] | pEC50 [2] | SMILES
0.2 | 6.40 to 6.70 | CC[C@H](C)[C@H](NC(=O)[C@H](Cc1ccccc1)NC(=O)[C@H](CCC(=O)O)NC(=O)[C@H](CCCNC(=N)N)NC(=O)[C@H](C)NC(=O)[C@H](C)NC(=O)[C@H](CCC(N)=O)NC(=O)[C@H](CCC(=O)O)NC(=O)[C@H](CCC(=O)O)NC(=O)[C@H](CC(C)C)NC(=O)[C@H](Cc1ccc(O)cc1)NC(=O)[C@H](CO)NC(=O)[C@H](CO)NC(=O)[C@@H](NC(=O)[C@H](CC(=O)O)NC(=O)[C@H](CO)NC(=O)[C@@H](NC(=O)[C@H](Cc1ccccc1)NC(=O)[C@@H](NC(=O)CNC(=O)[C@H](CCC(=O)O)NC(=O)C(C)(C)NC(=O)[C@@H](N)Cc1c[nH]cn1)[C@@H](C)O)[C@@H](C)O)C(C)C)C(=O)N[C@@H](C)C(=O)N[C@@H](Cc1c[nH]c2ccccc12)C(=O)N[C@@H](CC(C)C)C(=O)N[C@H](C(=O)N[C@@H](CCCNC(=N)N)C(=O)NCC(=O)N[C@@H](CCCNC(=N)N)C(=O)N[C@@H](CCCCNC(=O)COCCOCCNC(=O)COCCOCCNC(=O)C[C@H](NC(=O)C1CCN(C(=O)CCCCCCCCCCCCCCCCCCC(=O)O)CC1)C(=O)O)C(N)=O)C(C)C [Example 2, N-epsilon37{2-[2-(2-{2-[2-((S)-3-carboxy-3-{[1-(19-carboxynonadecanoyl)piperidine-4-carbonyl]amino}propionylamino)ethoxy]ethoxy}acetylamino)ethoxy]ethoxy}acetyl [Aib8,Glu22,Arg26,Arg34,Lys37]GLP-1-(7-37)amide]
0.58 | 5.82 to 6.10 | CC[C@H](C)[C@H](NC(=O)[C@H](Cc1ccccc1)NC(=O)[C@H](CCC(=O)O)NC(=O)[C@H](CCCNC(=N)N)NC(=O)[C@H](C)NC(=O)[C@H](C)NC(=O)[C@H](CCC(N)=O)NC(=O)[C@H](CCC(=O)O)NC(=O)[C@H](CCC(=O)O)NC(=O)[C@H](CC(C)C)NC(=O)[C@H](Cc1ccc(O)cc1)NC(=O)[C@H](CO)NC(=O)[C@H](CO)NC(=O)[C@@H](NC(=O)[C@H](CC(=O)O)NC(=O)[C@H](CO)NC(=O)[C@@H](NC(=O)[C@H](Cc1ccccc1)NC(=O)[C@@H](NC(=O)CNC(=O)[C@H](CCC(=O)O)NC(=O)C(C)(C)NC(=O)[C@@H](N)Cc1c[nH]cn1)[C@@H](C)O)[C@@H](C)O)C(C)C)C(=O)N[C@@H](C)C(=O)N[C@@H](Cc1c[nH]c2ccccc12)C(=O)N[C@@H](CC(C)C)C(=O)N[C@H](C(=O)N[C@@H](CCCNC(=N)N)C(=O)NCC(=O)N[C@@H](CCCNC(=N)N)C(=O)N[C@@H](CCCCNC(=O)COCCOCCNC(=O)COCCOCCNC(=O)CC[C@H](NC(=O)[C@H]1CC[C@H](CNC(=O)CCCCCCCCCCCCCCCCCCC(=O)O)CC1)C(=O)O)C(N)=O)C(C)C [Example 7, N-epsilon37-[2-(2-{2-[2-(2-{2-[(S)-4-Carboxy-4-({trans-4-[(19-carboxy-nonadecanoylamino)methyl]cyclohexanecarbonyl}amino)butyrylamino]ethoxy}ethoxy)acetylamino]ethoxy}ethoxy)acetyl][Aib8,Glu22,Arg26,Arg34,Lys37]GLP-1-(7-37)amide]
0.66 | 5.70 to 5.82 | CC[C@H](C)[C@H](NC(=O)[C@H](Cc1ccccc1)NC(=O)[C@H](CCC(=O)O)NC(=O)[C@H](CCCNC(=N)N)NC(=O)[C@H](C)NC(=O)[C@H](C)NC(=O)[C@H](CCC(N)=O)NC(=O)[C@H](CCC(=O)O)NC(=O)[C@H](CCC(=O)O)NC(=O)[C@H](CC(C)C)NC(=O)[C@H](Cc1ccc(O)cc1)NC(=O)[C@H](CO)NC(=O)[C@H](CO)NC(=O)[C@@H](NC(=O)[C@H](CC(=O)O)NC(=O)[C@H](CO)NC(=O)[C@@H](NC(=O)[C@H](Cc1ccccc1)NC(=O)[C@@H](NC(=O)CNC(=O)[C@H](CCC(=O)O)NC(=O)[C@H](C)NC(=O)CCc1c[nH]cn1)[C@@H](C)O)[C@@H](C)O)C(C)C)C(=O)N[C@@H](C)C(=O)N[C@@H](Cc1c[nH]c2ccccc12)C(=O)N[C@@H](CC(C)C)C(=O)N[C@H](C(=O)N[C@@H](CCCNC(=N)N)C(=O)NCC(=O)N[C@@H](CCCNC(=N)N)C(=O)N[C@@H](CCCCNC(=O)COCCOCCNC(=O)COCCOCCNC(=O)CC[C@H](NC(=O)[C@H]1CC[C@H](CNC(=O)CCCCCCCCCCCCCCCCCCC(=O)O)CC1)C(=O)O)C(N)=O)C(C)C [Example 8, N-epsilon37-[2-(2-{2-[2-(2-{2-[(S)-4-Carboxy-4-({trans-4-[(19-carboxy-nonadecanoylamino)methyl]cyclohexanecarbonyl}amino)butyrylamino]ethoxy}ethoxy)acetylamino]ethoxy}ethoxy)acetyl][DesaminoHis7,Glu22,Arg26,Arg34,Lys37]GLP-1-(7-37)amide]
0.5 | 5.82 to 6.10 | CC[C@H](C)[C@H](NC(=O)[C@H](Cc1ccccc1)NC(=O)[C@H](CCC(=O)O)NC(=O)[C@H](CCCNC(=N)N)NC(=O)[C@H](C)NC(=O)[C@H](C)NC(=O)[C@H](CCC(N)=O)NC(=O)[C@H](CCC(=O)O)NC(=O)[C@H](CCC(=O)O)NC(=O)[C@H](CC(C)C)NC(=O)[C@H](Cc1ccc(O)cc1)NC(=O)[C@H](CO)NC(=O)[C@H](CO)NC(=O)[C@@H](NC(=O)[C@H](CC(=O)O)NC(=O)[C@H](CO)NC(=O)[C@@H](NC(=O)[C@H](Cc1ccccc1)NC(=O)[C@@H](NC(=O)CNC(=O)[C@H](CCC(=O)O)NC(=O)[C@H](C)NC(=O)CCc1c[nH]cn1)[C@@H](C)O)[C@@H](C)O)C(C)C)C(=O)N[C@@H](C)C(=O)N[C@@H](Cc1c[nH]c2ccccc12)C(=O)N[C@@H](CC(C)C)C(=O)N[C@H](C(=O)N[C@@H](CCCNC(=N)N)C(=O)NCC(=O)N[C@@H](CCCNC(=N)N)C(=O)N[C@@H](CCCCNC(=O)COCCOCCNC(=O)COCCOCCNC(=O)CC[C@H](NC(=O)[C@H]1CC[C@H](CNC(=O)CCCCCCCCCCCCCCCCCCC(=O)O)CC1)C(=O)O)C(=O)O)C(C)C [Example 9, N-epsilon37-[2-(2-{2-[2-(2-{2-[(S)-4-Carboxy-4-({trans-4-[(19-carboxy-nonadecanoylamino)methyl]cyclohexanecarbonyl}amino)butyrylamino]ethoxy}ethoxy)acetylamino]ethoxy}ethoxy)acetyl][DesaminoHis7,Glu22,Arg26,Arg34,Lys37]GLP-1-(7-37)]

Further lines, the compound ahead of its results:

SMILES | EC50 [1] [nM] | pEC50 [2]
CC[C@H](C)[C@H](NC(=O)[C@H](Cc1ccccc1)NC(=O)[C@H](CCC(=O)O)NC(=O)[C@H](CCCNC(=N)N)NC(=O)[C@H](C)NC(=O)[C@H](C)NC(=O)[C@H](CCC(N)=O)NC(=O)[C@H](CCC(=O)O)NC(=O)[C@H](CCC(=O)O)NC(=O)[C@H](CC(C)C)NC(=O)[C@H](Cc1ccc(O)cc1)NC(=O)[C@H](CO)NC(=O)[C@H](CO)NC(=O)[C@@H](NC(=O)[C@H](CC(=O)O)NC(=O)[C@H](CO)NC(=O)[C@@H](NC(=O)[C@H](Cc1ccccc1)NC(=O)[C@@H](NC(=O)CNC(=O)[C@H](CCC(=O)O)NC(=O)C(C)(C)NC(=O)[C@@H](N)Cc1c[nH]cn1)[C@@H](C)O)[C@@H](C)O)C(C)C)C(=O)N[C@@H](C)C(=O)N[C@@H](CCCCNC(=O)COCCOCCNC(=O)COCCOCCNC(=O)C[C@H](NC(=O)C1CCN(C(=O)CCCCCCCCCCCCCCCCCCC(=O)O)CC1)C(=O)O)C(=O)N[C@@H](CC(C)C)C(=O)N[C@H](C(=O)N[C@@H](CCCCN)C(=O)NCC(=O)N[C@@H](CCCNC(=N)N)C(=O)NCC(=O)O)C(C)C [Example 5, N-epsilon31{2-[2-(2-{2-[2-((S)-3-carboxy-3-{[1-(19-carboxynonadecanoyl)piperidine-4-carbonyl]amino}propionylamino)ethoxy]ethoxy}acetylamino)ethoxy]ethoxy}acetyl [Aib8,Glu22,Arg26,Lys31]GLP-1-(7-37)] (H-H[Aib]EGTFTSDVSSYLEEQAAREFIAK([AEEA-AEEA-βAsp-Inp-C20 diacid])LVKGRG-OH) | 0.2 | 6.82 to 7.00
CC[C@H](C)[C@H](NC(=O)[C@H](Cc1ccccc1)NC(=O)[C@H](CCC(=O)O)NC(=O)[C@H](CCCNC(=N)N)NC(=O)[C@H](C)NC(=O)[C@H](C)NC(=O)[C@H](CCC(N)=O)NC(=O)[C@H](CCC(=O)O)NC(=O)[C@H](CCC(=O)O)NC(=O)[C@H](CCCCNC(=O)COCCOCCNC(=O)CC[C@H](NC(=O)CC[C@H](NC(=O)CCCCCCCCCCCNC(=O)CCCS(=O)(=O)NC(=O)CCCCCCCCCCCCCCCc1nnn[nH]1)C(=O)O)C(=O)O)NC(=O)[C@H](Cc1ccc(O)cc1)NC(=O)[C@H](CO)NC(=O)[C@H](CO)NC(=O)[C@@H](NC(=O)[C@H](CC(=O)O)NC(=O)[C@H](CO)NC(=O)[C@@H](NC(=O)[C@H](Cc1ccccc1)NC(=O)[C@@H](NC(=O)CNC(=O)[C@H](CCC(=O)O)NC(=O)C(C)(C)NC(=O)[C@@H](N)Cc1c[nH]cn1)[C@@H](C)O)[C@@H](C)O)C(C)C)C(=O)N[C@@H](CCC(=O)O)C(=O)N[C@@H](Cc1c[nH]c2ccccc12)C(=O)N[C@@H](CC(C)C)C(=O)N[C@H](C(=O)N[C@@H](CCCCN)C(=O)NCC(=O)N[C@@H](CCCNC(=N)N)C(=O)N1CCC[C@H]1C(N)=O)C(C)C [Example 11, N-epsilon20-[2-(2-{2-[(S)-4-Carboxy-4-((S)-4-carboxy-4-{12-[4-(16-(1H-tetrazol-5-yl)hexadecanoylsulfamoyl)butyrylamino]dodecanoylamino}butyrylamino)butyrylamino]ethoxy}ethoxy)acetyl][Aib8,Lys20,Glu22,Arg26,Glu30,Pro37]GLP-1-(7-37)amide] (H-H[Aib]EGTFTSDVSSYK([AEEA-γGlu-γGlu-12Ado-X1])EEQAAREFIEWLVKGRP-NH2) | 0.61 | 7.00 to 9.00

From patent US9409966B2, “Glucagon-like peptide-1 derivatives and their pharmaceutical use” (priority 2007, dated 2016)
